Data reported in ChEMBL document CHEMBL4177616, “Potent anti-melanogenic activity and favorable toxicity profile of selected 4-phenyl hydroxycoumarins in the zebrafish model and the computational molecular modeling studies” (Bioorg Med Chem, 2017).
pIC50: −log10 of the molar value. Activity calls are given as the source filed them. No cut-off for these calls is given here.

Experiments:
Tyrosinase (Danio rerio) [1] = target: T1, Tyrosinase (Danio rerio) (UniProt A0A8M1PAD4); test: Potency index, ratio of kojic acid IC50 to compound IC50 for zebrafish embryo tyrosinase assessed as melanin production
T1 sequence (whole entry): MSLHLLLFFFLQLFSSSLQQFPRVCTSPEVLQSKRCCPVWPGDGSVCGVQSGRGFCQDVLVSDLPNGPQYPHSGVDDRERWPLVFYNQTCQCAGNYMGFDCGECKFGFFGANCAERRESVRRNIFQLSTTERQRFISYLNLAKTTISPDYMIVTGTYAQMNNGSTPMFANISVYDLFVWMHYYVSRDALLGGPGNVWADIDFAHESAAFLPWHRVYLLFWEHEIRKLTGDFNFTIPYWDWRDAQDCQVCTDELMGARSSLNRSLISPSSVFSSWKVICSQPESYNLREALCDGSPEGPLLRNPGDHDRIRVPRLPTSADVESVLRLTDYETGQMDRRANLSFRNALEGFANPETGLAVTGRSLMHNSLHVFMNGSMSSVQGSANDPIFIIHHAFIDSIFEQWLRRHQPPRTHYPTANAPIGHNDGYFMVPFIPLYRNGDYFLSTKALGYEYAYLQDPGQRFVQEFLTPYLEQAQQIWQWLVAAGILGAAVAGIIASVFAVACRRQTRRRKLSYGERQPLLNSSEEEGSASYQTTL

Tyrosinase (Danio rerio) [2] = target: T1, Tyrosinase (Danio rerio); test: Inhibition of zebrafish embryo tyrosinase assessed as residual activity at 5 ug/ml after 48 hrs relative to control
Melanocyte [3] = test: Cytotoxicity against wild type zebrafish embryo melanocytes assessed as change in morphology at to 25 ug/ml treated for 72 hrs post fertilization starting from 6 to 24 hrs post fertilization; assay type: cell-based, Danio rerio
Danio rerio [4] = species: Danio rerio; test: Toxicity in wild type zebrafish embryos assessed as skeletal deformities at 50 ug/ml treated for 96 hrs post fertilization starting from 6 hrs post fertilization by inverted microscopic analysis relative to control; assay type: organism-based; conditions: in vivo
Danio rerio [5] = test: Toxicity in wild type zebrafish embryos assessed as yolk edema at 50 ug/ml treated for 96 hrs post fertilization starting from 6 hrs post fertilization by inverted microscopic analysis relative to control; assay type: organism-based; conditions: in vivo
Melanocyte [6] = test: Anti-melanogenic activity in wild type zebrafish embryo melanocytes assessed as decrease in pigmentation at 25 ug/ml treated for 72 hrs post fertilization starting from 6 to 24 hrs post fertilization; assay type: functional, cell-based; conditions: Danio rerio
Danio rerio [7] = species: Danio rerio; test: Toxicity in wild type zebrafish embryos assessed as teratogenic embryo at 15 ug/ml treated for 96 hrs post fertilization starting from 6 hrs post fertilization by inverted microscopic analysis relative to control; assay type: organism-based; conditions: in vivo
Danio rerio [8] = species: Danio rerio; test: Toxicity in wild type zebrafish embryos assessed as skeletal deformities at 15 ug/ml treated for 96 hrs post fertilization starting from 6 hrs post fertilization by inverted microscopic analysis relative to control; assay type: organism-based; conditions: in vivo
Danio rerio [9] = species: Danio rerio; test: Toxicity in wild type zebrafish embryos assessed as skeletal deformities at 20 ug/ml treated for 96 hrs post fertilization starting from 6 hrs post fertilization by inverted microscopic analysis relative to control; assay type: organism-based; conditions: in vivo
Tyrosinase (Danio rerio) [10] = target: T1, Tyrosinase (Danio rerio); test: Inhibition of zebrafish embryo tyrosinase assessed as melanin production at 20 ug/ml after 48 hrs relative to control; values are per cent of control
Melanocyte [11] = test: Cytotoxicity against wild type zebrafish embryo melanocytes assessed as size of melanocyte at to 25 ug/ml treated for 72 hrs post fertilization starting from 6 to 24 hrs post fertilization; assay type: cell-based, Danio rerio
Danio rerio [12] = species: Danio rerio; test: Toxicity in wild type zebrafish embryos assessed as normal embryo at 15 ug/ml treated for 96 hrs post fertilization starting from 6 hrs post fertilization by inverted microscopic analysis relative to control; assay type: organism-based; conditions: in vivo
Danio rerio [13] = species: Danio rerio; test: Toxicity in wild type zebrafish embryos assessed as otoliths at 50 ug/ml treated for 96 hrs post fertilization starting from 6 hrs post fertilization by inverted microscopic analysis relative to control; assay type: organism-based; conditions: in vivo
Danio rerio [14] = species: Danio rerio; test: Toxicity in wild type zebrafish embryos assessed as blood circulation at 50 ug/ml treated for 96 hrs post fertilization starting from 6 hrs post fertilization by inverted microscopic analysis relative to control; assay type: organism-based; conditions: in vivo
Danio rerio [15] = species: Danio rerio; test: Toxicity in wild type zebrafish embryos assessed as growth retardation at 15 ug/ml treated for 96 hrs post fertilization starting from 6 hrs post fertilization by inverted microscopic analysis relative to control; assay type: organism-based; conditions: in vivo
Danio rerio [16] = species: Danio rerio; test: Toxicity in wild type zebrafish embryos assessed as growth retardation at 50 ug/ml treated for 96 hrs post fertilization starting from 6 hrs post fertilization by inverted microscopic analysis relative to control; assay type: organism-based; conditions: in vivo
Danio rerio [17] = species: Danio rerio; test: Toxicity in wild type zebrafish embryos assessed as head malformation at 20 ug/ml treated for 96 hrs post fertilization starting from 6 hrs post fertilization by inverted microscopic analysis relative to control; assay type: organism-based; conditions: in vivo
Danio rerio [18] = species: Danio rerio; test: Toxicity in wild type zebrafish embryos assessed as unhatched embryo at 50 ug/ml treated for 96 hrs post fertilization starting from 6 hrs post fertilization by inverted microscopic analysis relative to control; assay type: organism-based; conditions: in vivo
Melanocyte [19] = test: Cytotoxicity against wild type zebrafish embryo melanocytes assessed as number of melanocyte at 25 ug/ml treated for 72 hrs post fertilization starting from 6 to 24 hrs post fertilization; assay type: cell-based, Danio rerio
Danio rerio [20] = species: Danio rerio; test: Toxicity in wild type zebrafish embryos assessed as eyes at 15 ug/ml treated for 96 hrs post fertilization starting from 6 hrs post fertilization by inverted microscopic analysis relative to control; assay type: organism-based; conditions: in vivo
Danio rerio [21] = test: Toxicity in wild type zebrafish embryos assessed as pericardial edema at 15 ug/ml treated for 96 hrs post fertilization starting from 6 hrs post fertilization by inverted microscopic analysis relative to control; assay type: organism-based; conditions: in vivo
Danio rerio [22] = species: Danio rerio; test: Toxicity in wild type zebrafish embryos assessed as head malformation at 15 ug/ml treated for 96 hrs post fertilization starting from 6 hrs post fertilization by inverted microscopic analysis relative to control; assay type: organism-based; conditions: in vivo
Danio rerio [23] = species: Danio rerio; test: Toxicity in wild type zebrafish embryos assessed as notochord at 15 ug/ml treated for 96 hrs post fertilization starting from 6 hrs post fertilization by inverted microscopic analysis relative to control; assay type: organism-based; conditions: in vivo
Tyrosinase (Danio rerio) [24] = target: T1, Tyrosinase (Danio rerio); test: Inhibition of zebrafish embryo tyrosinase assessed as melanin production at 10 ug/ml after 48 hrs relative to control; values are per cent of control
Danio rerio [25] = test: Toxicity in wild type zebrafish embryos assessed as yolk edema at 15 ug/ml treated for 96 hrs post fertilization starting from 6 hrs post fertilization by inverted microscopic analysis relative to control; assay type: organism-based; conditions: in vivo
Tyrosinase (Danio rerio) [26] = target: T1, Tyrosinase (Danio rerio); test: Potency index, ratio of kojic acid IC50 to compound IC50 for zebrafish embryo tyrosinase assessed as residual activity
[27] = Toxicity in wild type zebrafish embryos assessed as dead embryo at 15 ug/ml treated for 96 hrs post fertilization starting from 6 hrs post fertilization by inverted microscopic analysis relative to control; assay type: organism-based, Danio rerio; conditions: in vivo, read-out: Activity
Danio rerio [28] = test: Toxicity in wild type zebrafish embryos assessed as pericardial edema at 50 ug/ml treated for 96 hrs post fertilization starting from 6 hrs post fertilization by inverted microscopic analysis relative to control; assay type: organism-based; conditions: in vivo
Tyrosinase [29] = target: T2, Tyrosinase (Danio rerio, UniProt A0A8M1PAD4); test: Inhibition of zebrafish embryo tyrosinase assessed as melanin production after 48 hrs
T2 sequence (A0A8M1PAD4 whole entry): T1 sequence (whole entry)

Tyrosinase [30] = target: T2, Tyrosinase; test: Inhibition of zebrafish embryo tyrosinase assessed as residual activity after 48 hrs
Danio rerio [31] = species: Danio rerio; test: Toxicity in wild type zebrafish embryos assessed as notochord at 50 ug/ml treated for 96 hrs post fertilization starting from 6 hrs post fertilization by inverted microscopic analysis relative to control; assay type: organism-based; conditions: in vivo
Danio rerio [32] = species: Danio rerio; test: Toxicity in wild type zebrafish embryos assessed as eyes at 50 ug/ml treated for 96 hrs post fertilization starting from 6 hrs post fertilization by inverted microscopic analysis relative to control; assay type: organism-based; conditions: in vivo

SMILES	Ratio IC50 (Tyrosinase (Danio rerio) [1])	Activity (Tyrosinase (Danio rerio) [2]) [%]	Activity (Melanocyte [3])	Activity (Danio rerio [4]) [%]	Activity (Danio rerio [5]) [%]	Activity (Melanocyte [6])	Activity (Danio rerio [7]) [%]	Activity (Danio rerio [8]) [%]	Activity (Danio rerio [9]) [%]	melanin content % of control (Tyrosinase (Danio rerio) [10]) [%]	Activity (Melanocyte [11])	Activity (Danio rerio [12]) [%]	Activity (Danio rerio [13]) [%]	Activity (Danio rerio [14]) [%]	Activity (Danio rerio [15]) [%]	Activity (Danio rerio [16]) [%]	Activity (Danio rerio [17]) [%]	Activity (Danio rerio [18]) [%]	Activity (Melanocyte [19])	Activity (Danio rerio [20]) [%]	also measured
O=c1cc(-c2ccccc2)c2c(O)cc(O)cc2o1	147	95	Non-Toxic	25	0	Active	0	0	0	37	Non-Toxic	100	0	0	0	0	0	0	Non-Toxic	0	Activity (Danio rerio [21]): 0%; Activity (Danio rerio [22]): 0%; Activity (Danio rerio [23]): 0%; melanin content % of control (Tyrosinase (Danio rerio) [24]): 48%; Activity (Danio rerio [25]): 0%; Ratio IC50 (Tyrosinase (Danio rerio) [26]): 86; mortality at 15 ug/ml [27]: 0%; Activity (Danio rerio [28]): 5%; pIC50 (Tyrosinase [29]): 4.38; pIC50 (Tyrosinase [30]): 4.04; Activity (Danio rerio [31]): 0%; Activity (Danio rerio [32]): 0%
O=c1cc(-c2ccccc2)c2ccc(O)cc2o1	62	99	Non-Toxic	0	0	Active	0	0	0	61	Non-Toxic	100	0	0	0	0	0	0	Non-Toxic	0	Activity (Danio rerio [21]): 0%; Activity (Danio rerio [22]): 0%; Activity (Danio rerio [23]): 0%; melanin content % of control (Tyrosinase (Danio rerio) [24]): 91%; Activity (Danio rerio [25]): 0%; Ratio IC50 (Tyrosinase (Danio rerio) [26]): 41; mortality at 15 ug/ml [27]: 0%; Activity (Danio rerio [28]): 0%; pIC50 (Tyrosinase [29]): 3.99; pIC50 (Tyrosinase [30]): 3.69; Activity (Danio rerio [31]): 0%; Activity (Danio rerio [32]): 0%
